# Measured values published in patent publication US11723957B2, “Compositions comprising relaxin and methods of use thereof” (Beth Israel Deaconess Medical Center, Inc., priority 2016, dated 2023).
# Where “and” joins values, the source holds several entries; their conditions need not be identical. Equal entries are not always repeated. Entries after “also recorded” stand apart in the source; their conditions may differ. No end group written: not given here.
# Key:
# relaxin antibody = test: Antibody-based ELISA of PEGylated relaxin; type: binding; details: Quantikine ELISA, six dilutions
# [1] = in vivo; cited from earlier work
# [2] = test system: rat shoulder contracture model (glenohumeral joint); test: ROM measurement in rat shoulder contracture model (Example 2); type: in vivo, Sprague Dawley rats; details: for Final ROM, Total ROM: 8 weeks follow-up; for Difference ROM (% Δ°), External ROM / Difference ROM (% Δ°), Internal ROM / Difference ROM (% Δ°), Total ROM: final versus baseline
# Description: On the approval of the Institutional Animal Care and Use Committee (IACUC) at Beth Israel Deaconess Medical Center, 20 Female Sprague Dawley rats (250-300 g, Charles River Laboratories, Inc., Wilmington, Mass., USA) were chosen for this study. Baseline ROM measurements were taken for both forelimbs of each rat prior to any surgical intervention. Torque measurements were recorded at […] (τINT) and 60° of external rotation (τOUT), totaling a full 160° range of motion (ROM) (FIG. 4, Panels B and C). These measurements were required as they indicate a baseline for normal torque necessary to achieve both rotations. The specific rotation angles were chosen under fluoroscopic guidance to ensure minimal scapular recruitment, while simultaneously allowing for maximum humeral rotation within the joint space. Each ROM measurement was repeated three times to ensure consistency. All measurements were also performed under anesthesia to prevent any active muscle activation from interfering with the passive capsular resistance. Induction of the rats was performed at 5% isoflurane inhalation, and maintenance was managed at a 2% isoflurane dose.
# After the baseline measurements and under anesthesia, 20 rats were subjected to the immobilization procedure as outlined in Example 1 and in Villa-Camacho et al., Journal of Shoulder and Elbow Surgery, 2015, 24(11):1809-16, to induce fibrosis. In short, an incision was created longitudinally on the left limb, perpendicular to the scapular spine, to expose both the scapula and humerus. A No. 2-0 Ethibond polyester suture (Ethicon, San Lorenzo, PR, USA) was used to immobilize the humerus to the scapula by passing two loops through the medial border of the scapula and against the humeral shaft (FIG. 4, Panel A). Care was taken to ensure that the sutures avoided critical vasculature, musculature, and nerves. Each rat was maintained under fixation for 8 weeks. After the eighth week, the suture fixations were removed, and the rats were randomly placed in four groups: (1) intra-articular relaxin, single dose (IAS) (n=5); (2) intra-articular relaxin, multiple doses (IAM) (n=5); (3) intravenous relaxin, multiple doses (IVM) (n=5); and (4) untreated surgical controls (n=5). The sample size was determined with a power of 0.80 and α=0.05 if a 10% increase in range of motion from contracture was to be expected.
# The mechanical testing apparatus was assembled with four core components and controlled with a computer through custom-built software written on MATLAB 7.13.0.564 (The MathWorks, Inc., Natick, Mass., USA). Movement of the forelimb was mediated by a stepper motor controlled by a microcontroller (UNO R3; Arduino, Torino, Italy). The motor was then positioned axially with the reaction torque sensor (TFF400; FUTEK Advanced Sensor Technology, Inc., Irvine, Calif., USA), which measured torque and was utilized as an input feedback for the system. Along the same axis, the arm clamp and the 3-axis inclinometer (3DM-GX3-15; MicroStrain, Inc., Williston, Vt., USA) were attached on the sensing side of the torque sensor. The inclinometer also provided both positional feedback as well as angular measurements for the system. The entire assembly was positioned above the rat with the sensing plane parallel to the ground to ensure that gravity had little impact on the torque measurements (FIG. 4). The apparatus was programmed to move to a specified torque or angle for internal and external rotation for each rat. Plastic zip ties were used to secure the rat forelimb in the apparatus. Care was taken to prevent any injury, and the apparatus was programmed with an internal and external limit switch in the case the apparatus operated abnormally.
# Immediately after removal of the restraining sutures, relaxin was administered to the noncontrol group rats. […]
# [3] = test system: glenohumeral joint capsule and articular cartilage; type: in vivo, Sprague Dawley rats
# Description: At the conclusion of the follow-up period, the rats were euthanized according to IACUC guidelines. The rats were weighed and then subjected to CO2 exposure for euthanasia, and further confirmed through a bilateral thoracotomy. The shoulders were bilaterally harvested by disarticulating the humerus from the ulna, and removing the scapula from the clavicle and thoracic cavity. Excess muscle tissue not immediately surrounding the glenohumeral joint capsule was removed. The excised shoulders were decalcified for two months in a solution of ethylenediaminetetraacetic acid (EDTA), which was changed every two to three days. Once decalcified, the shoulders were affixed in a solution of 10% formalin and then mounted in paraffin stacks for histological sectioning at the Beth Israel Deaconess Medical Center (BIDMC) Histology Core. These stacks were mounted so that coronal slicing could be obtained. The slices were stained with hematoxylin and eosin (H&E) and examined for any morphological changes. These slices were taken from a posterior region of humeral head to better find evidence of periarticular adhesions (Brue et al., Knee Surg. Sports Traumatol. Arthrosc., 2007, 15(8):1048-54; White et al., Radiographics, 2016, 36(3):824-39). Further slices, taken mid-coronally, were also stained with fibronectin antibodies paired with peroxidase to further examine fibrotic characteristics such as capsular thickening. Collagen III, α-smooth muscle actin, and other acute fibrotic markers were not chosen for analysis, since histologic sectioning would occur 4 months after contracture creation. The specimen chosen to undergo histological analysis were the surgical control group and the IAM group. The IAM group was chosen because this group received the highest and most frequent dose of relaxin, and was, therefore, the best candidate to showcase any morphologic changes due to relaxin administration. The contralateral shoulders from the surgical control group were used to model a healthy control shoulder for histologic comparisons.
# [4] = test system: NIH 373 murine fibroblasts; test: cAMP levels in fibroblasts exposed to relaxin; type: cell-based; details: cultured NIH 373 murine fibroblasts exposed to relaxin
# Description: The activity of recombinant relaxin (RLN2) was validated by measuring upregulation in the production of cAMP, a secondary metabolite of the relaxin signaling pathway. Increases in cAMP lead to increased MMP expression and decreased collagen and TIMP expression. To validate the activity of RLN2, cultured NIH 373 murine fibroblasts were exposed to relaxin, and the resulting cAMP levels were measured.
# [5] = IAM: intra-articular, multiple doses, final measurement
# [6] = IAS: intra-articular, single dose, final measurement
# [7] = IVM: intravenous, multiple doses, final measurement
substance,measurement,setting,value
PEGylated relaxin: relaxin reacted with mPEG-SVA (2000 MW); product conjugated with two PEG chains (chain 1 QLYSALANKCCHVGCTKRSLARFC; chain 2 DSWMEEVIKLCGRELVRAQIAICGMSTWS; not fully specified (bridges); ends and bridges not checked),Recognition by the relaxin antibody,relaxin antibody,recognized by the relaxin antibody
relaxin,Half-life,[1],about 2.5 hours
same,"Treatment of shoulder contracture, overall result",[2]; 5 intra-articular doses of 0.0005 mg over 10 days (total 0.0025 mg),effective in treating shoulder contracture; also recorded: full recovery with increased ROM for 60 days
same,ROM of healthy contralateral forelimbs / systemic joint laxity,"[2]; IAM, IAS and IVM groups",no significant change from baseline; also recorded: no systemic joint laxity was present
same,"Final ROM, Total ROM","[2]; IAM: intra-articular, multiple doses (5 x 0.0005 mg every 2 days), final measurement",159.13 ± 6.97 °
same,"Final ROM, External ROM",[2]; [5],60.27 ± 11.05 °
same,"Final ROM, Internal ROM",[2]; [5],98.87 ± 10.63 °
same,Total ROM compared with surgical control group (statistics),"[2]; IAM, final measurement, P<0.01",significantly improved when compared with the control group
same,Total ROM compared with baseline measurements (statistics),"[2]; IAM, final measurement, P=0.94",not statistically different from the baseline measurements
same,"Difference ROM (% Δ°), External ROM",[2]; IAM,1.01%
same,"Difference ROM (% Δ°), Internal ROM",[2]; IAM,−0.27%
same,"Difference ROM (% Δ°), Total ROM",[2]; IAM,0.21%
same,"Final ROM, Total ROM","[2]; IAS: intra-articular, single dose 0.0005 mg, final measurement",138.40 ± 15.34 °
same,"Final ROM, External ROM",[2]; [6],63.13 ± 14.20 °
same,"Final ROM, Internal ROM",[2]; [6],75.27 ± 15.62 °
same,Increase in total ROM compared with surgical control (statistics),"[2]; IAS, final measurement",not found to be significant
same,Restriction of total ROM compared with baseline,"[2]; IAS, final measurement",−21.72 °
same,"Difference ROM (% Δ°), External ROM",[2]; IAS,5.22%
same,"Difference ROM (% Δ°), Internal ROM",[2]; IAS,−24.83%
same,"Difference ROM (% Δ°), Total ROM",[2]; IAS,−13.57%
same,Improvement in ROM over the surgical control group,"[2]; IAS, measurement immediately following day 0, P=0.025",11.87 °
same,"Final ROM, Total ROM","[2]; IVM: intravenous, multiple doses (5 x 0.17 mg every 2 days), final measurement",127.93 ± 16.35 °
same,"Final ROM, External ROM",[2]; [7],54.67 ± 15.30 °
same,"Final ROM, Internal ROM",[2]; [7],73.27 ± 10.35 °
same,Restriction of total ROM compared with baseline,"[2]; IVM, final measurement",−30.73 °
same,"Difference ROM (% Δ°), External ROM",[2]; IVM,−7.87%
same,"Difference ROM (% Δ°), Internal ROM",[2]; IVM,−26.24%
same,"Difference ROM (% Δ°), Total ROM",[2]; IVM,−19.42% and −19.37%
same,"Treatment of shoulder contracture, overall result",[2]; single intra-articular injection of 0.0005 mg,ineffective
same,"Capsular adhesions, H&E stained sections","[3]; IAM group, end of follow-up",lacked any apparent adhesions
same,"Capsular tissue thickness, fibronectin stain","[3]; IAM group, end of follow-up",return to normal thickness in capsular tissue
same,Peroxidase intensity (fibronectin stain) in and around capsular tissue,"[3]; IAM group, end of follow-up",reduction in peroxidase intensity
same,"Articular cartilage quality, OARSI grading system","[3]; rat, in vivo",between a grade 1 and grade 2 level of osteoarthritis
same,"Fibrillation of the articular surface, H&E","[3]; rat, in vivo",both superficial and deep fibrillation within the articular surface
same,cAMP levels,[4],dose-dependent upregulation of cAMP levels
